Consider eight molecules from patent US10538443B2, “Method of degradation and inactivation of antibiotics in water by immobilized enzymes onto functionalized supports” (Luxembourg Institute of Science and Technology (LIST), priority 2014, dated 2020).

In data set [1] the target is T1, NDM-1 (Klebsiella pneumoniae, UniProt C7C422).
T1 construct: His tag (inferred from the HisTrap FF purification and the pOPINF vector; no tag is printed as such); made in house; host or cells: Escherichia coli BL21 2D3
Format: biochemical, K. pneumoniae. Conditions: free NDM-1 300 μg·ml^−1, antibiotic 100 μg·ml^−1, final volume 1 mL, deionized water, HEPES 12.5 mM, room temperature, 100 rpm. The protocol:
The production of protein performed as described by Green V. L. et al. (Acta Crystallogr. 2011, F67, 1160-1164) with few modifications: An additional step of freezing is added before cell lysis with French press. The NDM-1 isolation and purification are only performed with HisTrap FF column (GE Healthcare). Three washes in Amicon® Ultra-4 Centrifugal Filter Units 3,000 NMWL (1000×g for 15 min) allow to remove excess imidazole. Enzymes are then re-suspended in PBS.
(§1) Degradation experiments have been performed, using a concentration of free NDM-1 enzyme of 300 μg·ml^−1 in an aqueous medium comprising deionized water and HEPES 12.5 mM. Antibiotic is added at final concentration of 100 μg·ml^−1 (final volume: 1 mL). Degradation assay are performed under agitation of 100 rpm at room temperature during 1 hour. UV absorbance measurements are achieved to determine the evolution of the concentration of the antibiotics in the medium.

A short description of data set [2]: Autolysis of antibiotic after 1 hour. Format: physicochemical. The conditions noted are these: antibiotic 100 μg·ml^−1, deionized water, HEPES 12.5 mM, room temperature. The protocol: as §1
The subject of data set [3] is Selenastrum capricornutum. In words: Acute toxicity test on microalgae (ISO 8692: 2012), growth inhibition. Format: cell-based. Conditions: 90 μg·mL^−1. The protocol:
(§2) For this, the tests were carried out on the degradation media before (T0) and after metabolization by enzymes immobilized on PGMA and DOPA functionalized Kaldnes after 30 min, 1 h and 24 h of contact.
(§3) The tests are performed with the maximum volume of test solution that can be provided and defined by the standards cited earlier. The results are expressed as a percentage of growth inhibition for algae and Daphnia test, as percentage of light emission inhibition for the Microtox test and as percentage of cell viability inhibition for cytotoxicity tests.

Data set [4] relates to Daphnia magna Straus. In words: Daphnia acute toxicity test (ISO 6341: 2012). Format: in vivo. Conditions: amoxicillin 90 μg·mL^−1; T0 (before metabolization by enzymes). The protocol:
as §2, §3

For data set [5], the system named is Vibrio fischeri. Conditions: 0 min, 80 μg·mL^−1. Here is the method: as §2, §3
For data set [6], the system named is rat hepatoma cell line H4IIE.Luc. In words: Cytotoxicity test, Cell Viability Assay AlamarBlue. Format: cell-based. Conditions: amoxicillin 80 μg·mL^−1; T0 (before metabolization by enzymes). The protocol: as §2, §3
Data set [7] is described as follows: Degradation of amoxicillin (100 μg/ml) in filtered tap water with HEPES by immobilized or free enzyme, UV absorbance every 24 hours. Format: biochemical. The protocol: Once the Kaldnes carriers have been activated according to the above protocol, the enzymatic activity is measured. Two antibiotics present in an aqueous medium have been tested.
A sample of tap water, prealably filtered on a syringe filter unit (disposable pore size of 0.22 μm) and with HEPES (12.5 mM), and the antibiotics at a concentration of 100 μg/ml.
For comparison purposes, degradation of the antibiotic with the free enzyme will be tested. The sample of tap water, prealably filtered on a syringe filter unit (disposable pore size of 0.22 μm) and with HEPES (12.5 mM), and the antibiotics at a concentration of 100 μg·ml^−1, is prepared.
UV absorbance measurements are achieved to determine the evolution of the concentration of the antibiotics. […] The absorbance, and the thus the concentration, is determined every 24 hours.

The nature of data set [8]: Storage of the Kaldnes carriers at 4° C., length of preservation of activity. Format: physicochemical. Here is the method:
The biofunctionalized Kaldnes carriers, after being dried, have been kept in the fridge at 4° C. Antibiotics degradation tests were performed onto the carriers to measure the activity.

Setting [9] is: Kaldnes biochips, PGMA based layer, Tween 20 (5%), enzyme 1.985 mg.
Where [10] appears, read: Kaldnes biochips, dopamine as layer precursor, no Tween 20, enzyme 1.985 mg.
Setting [11] is: enzyme in its free form 2 mg, no Tween 20.

Positions of bridges follow the written chain, without caps; N, C: chain ends. Non-standard residues stand in square brackets, D forms with d. Residues, ends and D or L forms follow the SMILES beside them. *: point of attachment. Ileψ(thiazoline)Cys = CC[C@H](C)[C@H](N)C1=N[C@H](C(=O)*)CS1; dOrn = NCCC[C@@H](N)C(=O)O

In the case of `CC[C@H](C)[C@H](N)C1=N[C@H](C(=O)N[C@@H](CC(C)C)C(=O)N[C@H](CCC(=O)O)C(=O)N[C@H](C(=O)N[C@H]2CCCCNC(=O)[C@H](CC(N)=O)NC(=O)[C@@H](CC(=O)O)NC(=O)[C@H](Cc3cnc[nH]3)NC(=O)[C@@H](Cc3ccccc3)NC(=O)[C@H]([C@@H](C)CC)NC(=O)[C@@H](CCCN)NC2=O)[C@@H](C)CC)CS1` [bacitracin] ({Ileψ(thiazoline)Cys}-L[dE]IK[dOrn]I[dF]H[dD]N; lactam 4-C), in data set [1], the “degraded amount after 1 hour” value turned out to be 5 ± 0.8 µg. Moreover, in data set [2], the “Autolysis of antibiotic after 1 hour” value turned out to be 0 µg/mL.

On to `COc1cc(Cc2cnc(N)nc2N)cc(OC)c1OC` [trimethoprime], for which the “degraded amount after 1 hour” value in data set [1] was 2.5 ± 0.95 µg. For the same molecule, the “Autolysis of antibiotic after 1 hour” value in data set [2] turned out to be 0.01 µg/mL.

Take `CC1(C)S[C@@H]2[C@H](NC(=O)[C@H](N)c3ccc(O)cc3)C(=O)N2[C@H]1C(=O)O` [amoxicillin]: the “degraded amount after 1 hour” value in data set [1] turned out to be 10 ± 2 µg. Also, the “Autolysis of antibiotic after 1 hour” value in data set [2] was determined as 0 µg/mL. Further, the “Percentage of inhibition, Alga test” value is 55 ± 6% in data set [3] (0 min) and 0% in data set [3] (24 h). Besides, the “Percentage of inhibition, Daphnia Test” value in data set [4] was 56 ± 4%. Besides, the “Percentage of inhibition, Microtox” value in data set [5] is 41 ± 12%. Besides, in data set [6], the “Percentage of inhibition, Cell Viability Assay” value is given as 19 ± 5%.

`CC[C@H]1OC(=O)C[C@@H](O)[C@H](C)[C@@H](O[C@@H]2O[C@H](C)[C@@H](O[C@H]3C[C@@](C)(O)[C@@H](O)[C@H](C)O3)[C@H](N(C)C)[C@H]2O)[C@@H](CC=O)C[C@@H](C)C(=O)/C=C/C(C)=C/[C@@H]1CO[C@@H]1O[C@H](C)[C@@H](O)[C@@H](OC)[C@H]1OC` [tylosine]: in data set [1], the “degraded amount after 1 hour” value turned out to be 7.4 ± 1.1 µg. Further, the “Autolysis of antibiotic after 1 hour” value in data set [2] was 0.01 µg/mL.

With `CCC[C@@H]1C[C@@H](C(=O)N[C@@H]([C@H]2O[C@H](SC)[C@H](O)[C@@H](O)[C@H]2O)[C@@H](C)O)N(C)C1` [lincomycin], the “degraded amount after 1 hour” value in data set [1] was 5 ± 1.5 µg. Also, the “Autolysis of antibiotic after 1 hour” value in data set [2] was 0.01 µg/mL.

Turning to `Cc1cc(NS(=O)(=O)c2ccc(N)cc2)no1` [sulfamethoxazole], the “degraded amount after 1 hour” value in data set [1] turned out to be 3.2 ± 0.8 µg. In data set [2], the “Autolysis of antibiotic after 1 hour” value was 0 µg/mL.

`CC[C@H]1OC(=O)[C@H](C)[C@@H](O[C@H]2C[C@@](C)(OC)[C@@H](O)[C@H](C)O2)[C@H](C)[C@@H](O[C@@H]2O[C@H](C)C[C@H](N(C)C)[C@H]2O)[C@](C)(O)C[C@@H](C)C(=O)[C@H](C)[C@@H](O)[C@]1(C)O` [erythromycin]: the “degraded amount after 1 hour” value in data set [1] amounted to 6.8 ± 2.3 µg. Also, in data set [2], the “Autolysis of antibiotic after 1 hour” value came out at 0 µg/mL.

B1: NDM-1: New-Dehli metallo-β-lactamase 1, K. pneumoniae gene produced in E. coli BL21 2D3, used free or immobilized on Kaldnes biochips (protein, UniProt C7C422 29-270, looked up)
Metallo-beta-lactamase type 2: GEIRPTIGQQMETGDQRFGDLVFRQLAPNVWQHTSYLDMPGFGAVASNGLIVRDGGRVLVVDTAWTDDQTAQILNWIKQEINLPVALAVVTHAHQDKMGGMDALHAAGIATYANALSNQLAPQEGMVAAQHSLTFAANGWVEPATAPNFGPLKVFYPGPGHTSDNITVGIDGTDIAFGGCLIKDSKAKSLGNLGDADTEHYAASARAFGAAFPKASMIVMSHSAPDSRAAITHTARMADKLR
As to B1, the “Amount of degraded amoxicillin” value in data set [7] (setting [9]) was 3502 ± 191 µg; in data set [7] (setting [10]) it was 3021 ± 51 µg; in data set [7] (setting [11]), 390 ± 45 µg. Moreover, the Duration of activity in data set [7] (setting [9]) worked out at 22 days; in data set [7] (setting [10]) it was 10 days; in data set [7] (setting [11]), 4 days. In addition, the “amount of amoxicillin degraded, immobilized versus free form” value in data set [7] (Kaldnes carrier, Table V) is “about 8 times”. Also, the Length of preservation in data set [8] (stored as Kaldnes + PGMA) came out at 1 month; in data set [8] (stored as Kaldnes + PGMA + enzyme) it was 2 months; in data set [8] (stored as Kaldnes + PGMA + enzyme + Tween 20), 2 weeks; in data set [8] (stored as Kaldnes + dopamine) it was 3 weeks; in data set [8] (stored as Kaldnes + dopamine + enzyme), 1 month; in data set [8] (stored as Kaldnes + dopamine + enzyme + Tween 20), 2 weeks.
